Source: patent US10927106B2, “Benzothiazole derivatives as DYRK1 inhibitors” (PHARMASUM THERAPEUTICS AS, priority 2017, dated 2021)

Legend:
Test in all cases: Kinase profiling, 33P ATP filter binding assay
Assay type in all cases: biochemical
Settings in all cases: 1 micromolar inhibitor concentration, read-out: percentage inhibition
TGFBR1 = TGFBR1 (Homo sapiens (Human), UniProt P36897)
ERK2 = ERK2 (Homo sapiens (Human), UniProt P28482)
MAPKAP-K2 = MAPKAP-K2 (Homo sapiens (Human), UniProt P49137)
MSK1 = MSK1 (Homo sapiens (Human), UniProt O75582)
Chain of MSK1 (O75582 whole entry, species assumed): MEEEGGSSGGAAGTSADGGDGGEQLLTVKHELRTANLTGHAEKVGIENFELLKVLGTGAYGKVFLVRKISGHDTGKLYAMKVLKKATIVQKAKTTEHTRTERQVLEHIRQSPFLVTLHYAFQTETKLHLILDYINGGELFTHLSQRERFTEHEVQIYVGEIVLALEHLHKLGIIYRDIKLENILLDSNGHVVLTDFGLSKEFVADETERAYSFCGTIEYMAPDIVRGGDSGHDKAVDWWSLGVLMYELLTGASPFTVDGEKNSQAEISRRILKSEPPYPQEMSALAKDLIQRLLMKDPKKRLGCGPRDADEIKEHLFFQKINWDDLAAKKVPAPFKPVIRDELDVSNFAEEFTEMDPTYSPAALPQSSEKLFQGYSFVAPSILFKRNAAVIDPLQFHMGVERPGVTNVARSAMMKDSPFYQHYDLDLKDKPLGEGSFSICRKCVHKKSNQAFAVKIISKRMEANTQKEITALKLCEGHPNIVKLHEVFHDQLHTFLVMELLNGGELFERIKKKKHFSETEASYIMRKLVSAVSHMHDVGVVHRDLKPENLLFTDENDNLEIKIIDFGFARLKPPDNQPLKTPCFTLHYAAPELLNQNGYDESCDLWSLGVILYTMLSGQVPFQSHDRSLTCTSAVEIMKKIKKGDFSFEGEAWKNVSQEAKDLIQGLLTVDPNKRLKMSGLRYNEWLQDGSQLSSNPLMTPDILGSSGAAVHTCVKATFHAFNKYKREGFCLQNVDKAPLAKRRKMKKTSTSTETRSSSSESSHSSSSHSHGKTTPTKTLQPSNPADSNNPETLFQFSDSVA

IRAK4 = IRAK4 (Homo sapiens (Human), UniProt Q9NWZ3)
SYK = SYK (Homo sapiens (Human), UniProt P43405)
SRPK1 = SRPK1 (Homo sapiens (Human), UniProt Q96SB4)
YES1 = YES1 (Homo sapiens (Human), UniProt P07947)
PKBa = PKBa (Homo sapiens (Human), UniProt P31749)
CAMK1 = CAMK1 (Homo sapiens (Human), UniProt Q14012)
Chain of CAMK1 (Q14012 whole entry, species assumed): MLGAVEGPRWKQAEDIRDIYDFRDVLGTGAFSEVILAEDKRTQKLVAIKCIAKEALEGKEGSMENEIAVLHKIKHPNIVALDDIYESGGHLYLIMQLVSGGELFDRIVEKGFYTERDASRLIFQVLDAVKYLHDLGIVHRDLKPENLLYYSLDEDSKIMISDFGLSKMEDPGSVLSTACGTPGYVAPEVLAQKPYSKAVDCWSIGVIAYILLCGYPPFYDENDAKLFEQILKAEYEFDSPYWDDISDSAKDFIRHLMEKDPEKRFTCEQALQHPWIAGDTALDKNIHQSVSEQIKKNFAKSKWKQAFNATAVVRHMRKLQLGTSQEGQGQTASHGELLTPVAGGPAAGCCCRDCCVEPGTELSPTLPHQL

EPH-A2 = EPH-A2 (Homo sapiens (Human), UniProt P29317)
Chain of EPH-A2 (P29317 24-976, species assumed): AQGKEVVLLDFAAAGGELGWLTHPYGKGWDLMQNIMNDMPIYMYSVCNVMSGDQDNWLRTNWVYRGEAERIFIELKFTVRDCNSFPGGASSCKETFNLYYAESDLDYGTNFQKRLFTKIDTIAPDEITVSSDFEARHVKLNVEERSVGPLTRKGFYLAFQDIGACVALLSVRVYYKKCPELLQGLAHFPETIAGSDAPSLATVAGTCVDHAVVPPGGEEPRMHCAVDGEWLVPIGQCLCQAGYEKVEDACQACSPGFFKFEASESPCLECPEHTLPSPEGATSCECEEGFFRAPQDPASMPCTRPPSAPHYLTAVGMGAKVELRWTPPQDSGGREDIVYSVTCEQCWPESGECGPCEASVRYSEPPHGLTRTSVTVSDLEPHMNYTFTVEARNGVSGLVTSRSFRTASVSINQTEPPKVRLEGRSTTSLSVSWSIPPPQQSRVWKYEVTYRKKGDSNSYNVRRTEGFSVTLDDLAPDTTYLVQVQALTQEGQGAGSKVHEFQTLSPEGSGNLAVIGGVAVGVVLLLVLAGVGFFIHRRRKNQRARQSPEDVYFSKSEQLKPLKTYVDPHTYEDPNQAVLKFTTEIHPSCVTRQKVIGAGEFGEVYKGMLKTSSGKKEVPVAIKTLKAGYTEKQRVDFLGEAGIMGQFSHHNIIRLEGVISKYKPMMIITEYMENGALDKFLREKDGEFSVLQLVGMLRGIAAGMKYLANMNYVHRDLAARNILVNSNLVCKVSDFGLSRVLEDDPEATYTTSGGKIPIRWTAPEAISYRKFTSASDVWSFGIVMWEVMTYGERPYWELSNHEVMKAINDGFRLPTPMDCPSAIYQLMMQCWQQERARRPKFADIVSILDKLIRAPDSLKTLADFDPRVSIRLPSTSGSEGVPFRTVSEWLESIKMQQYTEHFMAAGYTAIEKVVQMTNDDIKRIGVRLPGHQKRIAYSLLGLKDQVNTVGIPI

ZAP70 = ZAP70 (Homo sapiens (Human), UniProt P43403)
TLK1 = TLK1 (Homo sapiens (Human), UniProt Q9UKI8)
TSSK1 = TSSK1 (Homo sapiens (Human), UniProt Q9BXA7)
IR = IR (Homo sapiens (Human), UniProt P06213)
S6K1 = S6K1 (Homo sapiens (Human), UniProt P23443)
JNK2 = JNK2 (Homo sapiens (Human), UniProt P45984)
IRAK1 = IRAK1 (Homo sapiens (Human), UniProt P51617)
Chain of IRAK1 (P51617 whole entry, species assumed): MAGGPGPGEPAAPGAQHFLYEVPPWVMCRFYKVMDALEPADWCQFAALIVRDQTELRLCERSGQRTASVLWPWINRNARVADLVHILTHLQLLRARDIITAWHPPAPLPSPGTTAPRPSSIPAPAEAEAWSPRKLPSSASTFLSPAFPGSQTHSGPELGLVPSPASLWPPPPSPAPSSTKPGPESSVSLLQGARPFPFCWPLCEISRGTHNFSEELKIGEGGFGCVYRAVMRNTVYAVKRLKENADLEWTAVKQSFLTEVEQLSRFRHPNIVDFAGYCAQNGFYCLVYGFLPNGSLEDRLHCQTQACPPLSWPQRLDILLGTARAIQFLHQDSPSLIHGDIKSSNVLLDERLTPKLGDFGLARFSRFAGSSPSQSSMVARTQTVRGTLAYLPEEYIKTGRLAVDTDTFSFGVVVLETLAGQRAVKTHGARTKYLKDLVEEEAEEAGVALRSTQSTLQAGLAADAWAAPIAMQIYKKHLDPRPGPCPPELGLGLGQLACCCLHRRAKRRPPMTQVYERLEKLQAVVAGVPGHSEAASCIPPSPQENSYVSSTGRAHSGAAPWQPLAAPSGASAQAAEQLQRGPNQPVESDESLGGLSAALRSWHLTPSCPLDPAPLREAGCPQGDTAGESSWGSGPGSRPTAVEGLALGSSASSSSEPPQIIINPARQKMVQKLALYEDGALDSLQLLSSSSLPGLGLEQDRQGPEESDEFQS

JNK1 = JNK1 (Homo sapiens (Human), UniProt P45983)
RIPK2 = RIPK2 (Homo sapiens (Human), UniProt O43353)
TTBK2 = TTBK2 (Homo sapiens (Human), UniProt Q6IQ55)
GCK = GCK (Homo sapiens (Human), UniProt Q12851)
BRK = BRK (Homo sapiens (Human), UniProt Q13882)
PLK1 = PLK1 (Homo sapiens (Human), UniProt P53350)
MLK1 = MLK1 (Homo sapiens (Human), UniProt P80192)
RSK2 = RSK2 (Homo sapiens (Human), UniProt P51812)
MEKK1 = MEKK1 (Homo sapiens (Human), UniProt Q13233)
ABL = ABL (Homo sapiens (Human), UniProt P00519)
EPH-B1 = EPH-B1 (Homo sapiens (Human), UniProt P54762)
Chain of EPH-B1 (P54762 18-984, species assumed): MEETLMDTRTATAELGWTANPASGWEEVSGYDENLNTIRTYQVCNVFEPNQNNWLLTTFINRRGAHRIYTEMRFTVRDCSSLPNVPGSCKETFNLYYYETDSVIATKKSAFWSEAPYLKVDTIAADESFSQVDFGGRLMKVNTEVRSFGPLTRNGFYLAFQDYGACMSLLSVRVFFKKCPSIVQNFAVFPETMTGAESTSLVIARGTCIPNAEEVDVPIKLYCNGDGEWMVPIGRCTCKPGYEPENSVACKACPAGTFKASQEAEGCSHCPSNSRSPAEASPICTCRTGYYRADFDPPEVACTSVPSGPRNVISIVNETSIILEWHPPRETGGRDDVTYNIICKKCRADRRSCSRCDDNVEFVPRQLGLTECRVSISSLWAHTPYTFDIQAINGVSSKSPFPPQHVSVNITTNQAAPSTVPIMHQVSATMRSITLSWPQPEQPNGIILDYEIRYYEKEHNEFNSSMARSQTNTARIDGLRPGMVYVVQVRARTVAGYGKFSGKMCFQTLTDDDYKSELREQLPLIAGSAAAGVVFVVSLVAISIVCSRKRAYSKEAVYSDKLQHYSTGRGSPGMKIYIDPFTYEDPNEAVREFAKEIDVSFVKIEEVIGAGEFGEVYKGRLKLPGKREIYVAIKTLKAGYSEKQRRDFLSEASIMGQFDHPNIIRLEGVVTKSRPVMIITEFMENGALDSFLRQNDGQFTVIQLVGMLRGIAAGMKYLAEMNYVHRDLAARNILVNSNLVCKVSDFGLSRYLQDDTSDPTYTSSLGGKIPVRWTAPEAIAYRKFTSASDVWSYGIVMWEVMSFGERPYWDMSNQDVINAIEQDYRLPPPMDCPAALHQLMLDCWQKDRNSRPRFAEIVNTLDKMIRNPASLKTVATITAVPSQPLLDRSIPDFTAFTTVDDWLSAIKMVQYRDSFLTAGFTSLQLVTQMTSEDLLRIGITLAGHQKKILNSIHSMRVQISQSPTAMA

JAK2 = JAK2 (Homo sapiens (Human), UniProt O60674)
PAK4 = PAK4 (Homo sapiens (Human), UniProt O96013)
PDK1 = PDK1 (Homo sapiens (Human), UniProt O15530)
JNK3 = JNK3 (Homo sapiens (Human), UniProt P53779)
CK1y2 = CK1y2 (Homo sapiens (Human), UniProt P78368)
TAO1 = TAO1 (Homo sapiens (Human), UniProt Q7L7X3)
EF2K = EF2K (Homo sapiens (Human), UniProt O00418)
MPSK1 = MPSK1 (Homo sapiens (Human), UniProt O75716)
EPH-B2 = EPH-B2 (Homo sapiens (Human), UniProt P29323)
Aurora B = Aurora B (Homo sapiens (Human), UniProt Q96GD4)
ERK1 = ERK1 (Homo sapiens (Human), UniProt P27361)
MARK1 = MARK1 (Homo sapiens (Human), UniProt Q9P0L2)
Chain of MARK1 (Q9P0L2 whole entry, species assumed): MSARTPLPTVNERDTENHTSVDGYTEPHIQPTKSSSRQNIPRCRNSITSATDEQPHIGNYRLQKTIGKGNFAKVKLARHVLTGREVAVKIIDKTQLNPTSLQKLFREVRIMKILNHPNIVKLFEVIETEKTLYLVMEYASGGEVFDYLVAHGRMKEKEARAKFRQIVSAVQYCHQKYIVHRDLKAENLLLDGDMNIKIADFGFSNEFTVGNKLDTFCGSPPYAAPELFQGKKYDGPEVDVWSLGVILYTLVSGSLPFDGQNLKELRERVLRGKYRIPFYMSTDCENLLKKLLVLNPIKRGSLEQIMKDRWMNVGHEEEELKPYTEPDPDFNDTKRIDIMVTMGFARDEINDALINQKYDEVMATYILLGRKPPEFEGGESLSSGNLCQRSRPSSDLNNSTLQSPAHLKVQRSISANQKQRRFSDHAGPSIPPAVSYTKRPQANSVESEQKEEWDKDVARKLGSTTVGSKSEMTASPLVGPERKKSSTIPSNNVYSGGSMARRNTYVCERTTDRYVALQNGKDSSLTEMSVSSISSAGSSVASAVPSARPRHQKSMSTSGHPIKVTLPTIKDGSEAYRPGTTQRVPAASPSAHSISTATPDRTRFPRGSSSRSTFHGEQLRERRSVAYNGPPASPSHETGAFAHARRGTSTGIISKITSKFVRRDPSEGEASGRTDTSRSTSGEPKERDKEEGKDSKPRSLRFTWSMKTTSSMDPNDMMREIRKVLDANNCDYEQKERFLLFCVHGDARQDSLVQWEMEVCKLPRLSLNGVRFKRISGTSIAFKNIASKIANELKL

ASK1 = ASK1 (Homo sapiens (Human), UniProt Q99683)

Chain of TGFBR1 (P36897 34-503, species assumed): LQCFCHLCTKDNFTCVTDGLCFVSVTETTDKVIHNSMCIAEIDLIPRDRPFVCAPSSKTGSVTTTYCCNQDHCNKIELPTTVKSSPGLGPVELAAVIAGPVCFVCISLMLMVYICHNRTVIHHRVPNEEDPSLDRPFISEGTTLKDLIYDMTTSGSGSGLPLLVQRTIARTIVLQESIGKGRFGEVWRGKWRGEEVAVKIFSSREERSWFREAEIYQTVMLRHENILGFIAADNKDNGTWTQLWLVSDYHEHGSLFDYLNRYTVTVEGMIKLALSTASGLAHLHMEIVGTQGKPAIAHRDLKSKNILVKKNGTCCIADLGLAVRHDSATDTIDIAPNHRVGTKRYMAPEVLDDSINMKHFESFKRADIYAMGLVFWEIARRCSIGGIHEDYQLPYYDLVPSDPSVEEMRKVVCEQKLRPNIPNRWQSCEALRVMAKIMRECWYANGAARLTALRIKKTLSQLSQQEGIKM

SMILES: COc1ccc2sc(-c3cncc(NC(C)=O)c3)nc2c1 [4-93, N-(5-(5-Methoxybenzo[d]thiazol-2-yl)pyridin-3-yl)acetamide]
- inhibition at 1 µM (TGFBR1): 0%
- inhibition at 1 µM (ERK2): 0%
- inhibition at 1 µM (MAPKAP-K2): 0%
- inhibition at 1 µM (MSK1): 0%
- inhibition at 1 µM (IRAK4): 12%
- inhibition at 1 µM (SYK): 0%
- inhibition at 1 µM (SRPK1): 0%
- inhibition at 1 µM (YES1): 0%
- inhibition at 1 µM (PKBa): 0%
- inhibition at 1 µM (CAMK1): 0%
- inhibition at 1 µM (EPH-A2): 0%
- inhibition at 1 µM (ZAP70): 0%
- inhibition at 1 µM (TLK1): 0%
- inhibition at 1 µM (TSSK1): 0%
- inhibition at 1 µM (IR): 0%
- inhibition at 1 µM (S6K1): 0%
- inhibition at 1 µM (JNK2): 0%
- inhibition at 1 µM (IRAK1): 0%
- inhibition at 1 µM (JNK1): 0%
- inhibition at 1 µM (RIPK2): 0%
- inhibition at 1 µM (TTBK2): 0%
- inhibition at 1 µM (GCK): 0%
- inhibition at 1 µM (BRK): 0%
- inhibition at 1 µM (PLK1): 0%
- inhibition at 1 µM (MLK1): 0%
- inhibition at 1 µM (RSK2): 0%
- inhibition at 1 µM (MEKK1): 0%
- inhibition at 1 µM (ABL): 3%
- inhibition at 1 µM (EPH-B1): 0%
- inhibition at 1 µM (JAK2): 0%
- inhibition at 1 µM (PAK4): 0%
- inhibition at 1 µM (PDK1): 0%
- inhibition at 1 µM (JNK3): 0%
- inhibition at 1 µM (CK1y2): 0%
- inhibition at 1 µM (TAO1): 0%
- inhibition at 1 µM (EF2K): 0%
- inhibition at 1 µM (MPSK1): 0%
- inhibition at 1 µM (EPH-B2): 0%
- inhibition at 1 µM (Aurora B): 0%
- inhibition at 1 µM (ERK1): 0%
- inhibition at 1 µM (MARK1): 0%
- inhibition at 1 µM (ASK1): 0%

SMILES: CS(=O)(=O)Nc1cncc(-c2nc3cc(O)ccc3s2)c1 [4-99, N-(5-(5-Hydroxybenzo[d]thiazol-2-yl)pyridin-3-yl)methanesulfonamide]
- inhibition at 1 µM (TGFBR1): 0%
- inhibition at 1 µM (ERK2): 0%
- inhibition at 1 µM (MAPKAP-K2): 0%
- inhibition at 1 µM (MSK1): 0%
- inhibition at 1 µM (IRAK4): 8%
- inhibition at 1 µM (SYK): 0%
- inhibition at 1 µM (SRPK1): 0%
- inhibition at 1 µM (YES1): 0%
- inhibition at 1 µM (PKBa): 0%
- inhibition at 1 µM (CAMK1): 0%
- inhibition at 1 µM (EPH-A2): 0%
- inhibition at 1 µM (ZAP70): 0%
- inhibition at 1 µM (TLK1): 0%
- inhibition at 1 µM (TSSK1): 0%
- inhibition at 1 µM (IR): 0%
- inhibition at 1 µM (S6K1): 0%
- inhibition at 1 µM (JNK2): 0%
- inhibition at 1 µM (IRAK1): 0%
- inhibition at 1 µM (JNK1): 0%
- inhibition at 1 µM (RIPK2): 24%
- inhibition at 1 µM (TTBK2): 0%
- inhibition at 1 µM (GCK): 0%
- inhibition at 1 µM (BRK): 0%
- inhibition at 1 µM (PLK1): 0%
- inhibition at 1 µM (MLK1): 0%
- inhibition at 1 µM (RSK2): 0%
- inhibition at 1 µM (MEKK1): 0%
- inhibition at 1 µM (ABL): 0%
- inhibition at 1 µM (EPH-B1): 0%
- inhibition at 1 µM (JAK2): 0%
- inhibition at 1 µM (PAK4): 0%
- inhibition at 1 µM (PDK1): 0%
- inhibition at 1 µM (JNK3): 0%
- inhibition at 1 µM (CK1y2): 0%
- inhibition at 1 µM (TAO1): 0%
- inhibition at 1 µM (EF2K): 0%
- inhibition at 1 µM (MPSK1): 11%
- inhibition at 1 µM (EPH-B2): 0%
- inhibition at 1 µM (Aurora B): 0%
- inhibition at 1 µM (ERK1): 0%
- inhibition at 1 µM (MARK1): 0%
- inhibition at 1 µM (ASK1): 0%
